Data: patent US8829185B2 (Bayer HealthCare LLC, priority 2005, dated 2014)

target: T1, FGFR1-GST (Homo sapiens, UniProt P11362); experiment: FGFR-1 TR-FRET biochemical assay; conditions: bounds given in nM
T1 construct: GST; made in house
Outline: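 LANCE TR-FRET with 5 nM FGFR1-GST, 0.6 uM ATP, 25 nM biotin-poly GT in HEPES pH 7.5/MgCl2, 1% DMSO; compound added before enzyme, 1 h at room temperature. 665/615 nm ratio, background without ATP; % inhibition over 10 μM–0.128 nM final for IC50.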

T1 sequence (P11362 22-822): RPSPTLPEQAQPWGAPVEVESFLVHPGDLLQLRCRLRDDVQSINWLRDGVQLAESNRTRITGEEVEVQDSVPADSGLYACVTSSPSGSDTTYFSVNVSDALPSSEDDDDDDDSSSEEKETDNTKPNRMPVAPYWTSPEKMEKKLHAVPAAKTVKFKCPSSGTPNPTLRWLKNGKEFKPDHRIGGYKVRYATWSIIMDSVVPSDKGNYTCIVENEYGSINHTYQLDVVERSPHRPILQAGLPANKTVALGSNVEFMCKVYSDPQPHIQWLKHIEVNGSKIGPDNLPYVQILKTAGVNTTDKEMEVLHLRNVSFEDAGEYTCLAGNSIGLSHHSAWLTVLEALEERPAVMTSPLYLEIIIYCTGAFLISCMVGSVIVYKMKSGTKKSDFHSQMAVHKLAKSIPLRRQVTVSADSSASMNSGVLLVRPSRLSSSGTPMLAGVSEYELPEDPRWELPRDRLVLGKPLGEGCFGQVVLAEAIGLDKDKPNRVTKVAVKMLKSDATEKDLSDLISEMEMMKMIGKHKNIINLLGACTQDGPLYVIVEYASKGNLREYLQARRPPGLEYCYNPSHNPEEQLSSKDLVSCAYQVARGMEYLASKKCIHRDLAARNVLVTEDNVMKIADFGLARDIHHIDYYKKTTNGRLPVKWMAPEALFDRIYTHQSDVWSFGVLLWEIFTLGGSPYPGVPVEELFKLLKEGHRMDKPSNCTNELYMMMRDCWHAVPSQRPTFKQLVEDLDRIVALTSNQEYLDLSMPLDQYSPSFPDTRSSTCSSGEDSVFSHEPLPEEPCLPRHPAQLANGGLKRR

| SMILES | IC50 [nM] |
| --- | --- |
| N#Cc1c(C(=O)NCC(F)(F)F)c(-c2ccc(NC(=O)Nc3cc(C(F)(F)F)ccc3F)cc2)c2c(N)ncnn12 [Example 5, 4-amino-7-cyano-5-4-[([2-fluoro-5-(trifluoromethyl)phenyl]aminocarbonyl)amino]phenyl-N-(2,2,2-trifluoroethyl)-pyrrolo[2,1-f][1,2,4]triazine-6-carboxamide] | 10 to 100 |
| N#CCc1c(-c2ccc(NC(=O)Nc3cc(C(F)(F)F)ccc3Cl)c(F)c2)c2c(N)ncnn2c1CN1CCS(=O)(=O)CC1 [Example 83, N-(4-{4-amino-6-(cyanomethyl)-7-[(1,1-dioxidothiomorpholin-4-yl)methyl]pyrrolo[2,1-f][1,2,4]triazin-5-yl}-2-fluorophenyl)-N′-[2-chloro-5-(trifluoromethyl)phenyl]urea] | < 10 |
| Nc1ncnn2c(CN3CCOCC3)c(C(=O)C3CC3)c(-c3ccc(NC(=O)Nc4cc(C(F)(F)F)ccn4)cc3)c12 [Example 89, N-{4-[4-amino-6-(cyclopropylcarbonyl)-7-(morpholin-4-ylmethyl)pyrrolo[2,1-f][1,2,4]triazin-5-yl]phenyl}-N′-[4-(trifluoromethyl)pyridin-2-yl]urea] | 10 to 100 |
| COCc1c(-c2ccc(NC(=O)Nc3cc(C(F)(F)F)ccc3F)cc2)c2c(N)ncnn2c1CN1CCNC(=O)C1 [Example 19, N-(4-{4-amino-6-(methoxymethyl)-7-[(3-oxopiperazin-1-yl)methyl]pyrrolo[2,1-f][1,2,4]triazin-5-yl}phenyl)-N′-[2-fluoro-5-(trifluoromethyl)phenyl]urea] | < 10 |
| N#CCc1c(-c2ccc(NC(=O)Nc3cc(C(F)(F)F)ccc3F)cc2)c2c(N)ncnn2c1CN1CCNCC1 [Example 75, N-(4-{4-amino-6-(cyanomethyl)-7-(piperazin-1-ylmethyl)pyrrolo[2,1-f][1,2,4]triazin-5-yl}phenyl)-N′-[2-fluoro-5-(trifluoromethyl)phenyl]urea] | < 10 |
| CC(=O)N1CCN(Cc2c(-c3cnco3)c(-c3ccc(NC(=O)Nc4cc(C(F)(F)F)ccc4F)cc3)c3c(N)ncnn23)CC1 [Example 32, N-4-[7-[(4-acetylpiperazin-1-yl)methyl]-4-amino-6-(1,3-oxazol-5-yl)pyrrolo[2,1-f][1,2,4]triazin-5-yl]phenyl-N′-[2-fluoro-5-(trifluoromethyl)phenyl]urea] | < 10 |
| Nc1ncnn2c(CN3CCOCC3)c(Cl)c(-c3ccc(NC(=O)Nc4cc(C(F)(F)F)ccc4Cl)c(F)c3)c12 [Example 159, N-{4-[4-amino-6-chloro-7-(morpholin-4-ylmethyl)pyrrolo[2,1-f][1,2,4]triazin-5-yl]-2-fluorophenyl}-N′-[2-chloro-5-(trifluoromethyl)-phenyl]urea] | 10 to 100 |
